Data on 8 compounds can be found in paper PMC3873415, “A Non-Biological Method for Screening Active Components against Influenza Virus from Traditional Chinese Medicine by Coupling a LC Column with Oseltamivir Molecularly Imprinted Polymers” (PLoS ONE, 2013).

“Also recorded” adds a separate entry of the source.

The subject of series [1] is MDCK cells. To be noted: dog.
For series [2], the system named is Influenza virus strain A/Goose/Dalian/3/2001 (H9N2). The class given is cell-based, avian influenza virus H9N2.
Series [3] relates to avian influenza virus H9N2. The class given is cell-based.
For series [4], the system named is Influenza virus strain A/Goose/Dalian/3/2001 (H9N2). In kind it is cell-based, avian influenza virus H9N2. The source holds these as a separate data set.
Series [5] relates to enterovirus 71. To be noted: mice challenged with a lethal dose of enterovirus 71; cited from earlier work.
The test system of series [6] is Kunming mice. The note with it: cited from earlier work.
Series [7] has as its system enterovirus 71. To be noted: enterovirus 71 on rhabdomyosarcoma cells; cited from earlier work.

Consider `O=C1CCC[C@@H]2[C@H]3CCC[N+]4([O-])CCC[C@H](CN12)[C@@H]34` (stereo partly shown) [oxysophoridine], for which the “TCD0 (maximum non-toxic concentration)” value in series [1] was more than 2 mg/mL. For the same compound, the “Activity: CPE” value in series [2] was “No differences between all treatment and control groups”. Besides, in series [3], the “Activity (see Table 1) qualitative” value was 0, the “Activity (see Table 1) semi-quantitative” value is given as 0 and the “Activity against H9N2 in vitro (in words)” value (“Activity against H9N2” for short) was “did not show any similar bioactivities”. For the same compound, the “Activity: HI” value in series [4] is “No differences between all treatment and control groups”.

Usually LD50 stands for the dose at which mortality reaches 50%. Regarding `O=C1CCC[C@@H]2[C@H]3CCCN4CCC[C@@H](CN12)[C@@H]34` [matrine], the “TCD0 (maximum non-toxic concentration)” value in series [1] stood at 0.4 mg/mL. In addition, the “Activity: CPE” value in series [2] was “could protect MDCK cells from H9N2 in a dose-dependent manner; also recorded: The CPE of 0.4, 0.2 and 0.1 mg/ml matrine groups were milder than that of the viral control group”. In series [3], the “Activity (see Table 1) qualitative” value was 1; the “Activity (see Table 1) semi-quantitative” value is recorded as 3; the “Activity against H9N2” value is “had activity of alleviating CPE and HI against H9N2 in vitro and high”. The “mortality and clinical symptoms” value in series [5] is “reduced the mortality and relieved clinical symptoms”. The “Activity: HI” value in series [4] was “There was no H in 0.2 mg/ml matrine-treated group at 24 h and in 0.4mg/ml matrine-treated group at 24 or 48 h”. In addition, in series [6] (Kunming mice, acute toxicity, 95% confidence limit 88.08-280.31 mg/kg), the LD50 is 157.13 mg/kg. Further, the tolerable dose entry in series [6] (Kunming mice, acute toxicity) is “above 80 mg/kg”. Further, the Morphological observation result in series [6] (brain tissue of mice) is listed as “degenerative changes of the nerve cells in the brain tissue of the mice”. The “viral RNA copy number” value in series [7] is listed as “could suppress the viral RNA copy number on rhabdomyosarcoma cells”.

In the case of `O=C(/C=C/c1ccc(O)c(O)c1)O[C@@H]1C[C@](O)(C(=O)O)C[C@@H](O)[C@H]1O` [chlorogenic acid], in series [1], the “TCD0 (maximum non-toxic concentration)” value worked out at 0.016 mg/mL. Moreover, the “Activity: CPE” value in series [2] was “No differences between all treatment and control groups”. In series [3], the “Activity (see Table 1) qualitative” value is 0 and the “Activity (see Table 1) semi-quantitative” value is on record as 0. The “Activity: HI” value in series [4] is “No differences between all treatment and control groups”.

Turning to `CC(=O)Oc1ccccc1C(=O)O` [aspirin], in series [1], the “TCD0 (maximum non-toxic concentration)” value was more than 0.5 mg/mL. Besides, the “Activity: CPE” value in series [2] was “No differences between all treatment and control groups”. In series [3], the “Activity (see Table 1) qualitative” value was determined as 0 and the “Activity (see Table 1) semi-quantitative” value was found to be 0. The “Activity: HI” value in series [4] is “No differences between all treatment and control groups”.

Consider `O=C1CCC[C@@H]2[C@H]3CCCN4CCC[C@H](CN12)[C@@H]34` [sophoridine], for which the “TCD0 (maximum non-toxic concentration)” value in series [1] is more than 2 mg/mL. For the same compound, the “Activity: CPE” value in series [2] is given as “The CPE of 2 mg/ml sophoridine-treated group was more severe than that of the viral control at 48 h. The CPE of other test groups with low concentration were consistent with that of the viral control at 48 h”. In addition, in series [3], the “Activity (see Table 1) qualitative” value was determined as 1, the “Activity (see Table 1) semi-quantitative” value worked out at 1 and the “Activity against H9N2” value was “low”. Also, the “Activity: HI” value in series [4] is “had HI activity only at concentration of TCD0; also recorded: There was no H of 2 mg/ml sophoridine-treated group at any test time points. But the rest test groups had H at all test time points”.

Consider `CCOC(=O)C1=C[C@@H](OC(CC)CC)[C@H](NC(C)=O)[C@@H](N)C1` [OS (template), Oseltamivir], for which, in series [1], the “TCD0 (maximum non-toxic concentration)” value is 0.5 mg/mL. Besides, the “Activity: CPE” value in series [2] was “The CPE of 0.5mg/ml OS-treated group was more severe than viral control group within 48 h. The CPE of groups 0.25, 0.125 and 0.0625 mg/ml were milder than viral control at 72 h”. Moreover, in series [3], the “Activity (see Table 1) qualitative” value came out at 1; the “Activity (see Table 1) semi-quantitative” value was 3; the “Activity against H9N2” value was “had activity of alleviating CPE and HI against H9N2 in vitro”. The “Activity: HI” value in series [4] is listed as “No hemagglutination (H) was found in all tested groups at 24, 48 or 72 h”.

As to `O=C1CCC[C@@H]2[C@H]3CCC[N+]4([O-])CCC[C@@H](CN12)[C@@H]34` (stereo partly shown) [oxymatrine], the “TCD0 (maximum non-toxic concentration)” value in series [1] is more than 2 mg/mL. Moreover, the “Activity: CPE” value in series [2] was “No differences between all treatment and control groups”. In series [3], the “Activity (see Table 1) qualitative” value came out at 0, the “Activity (see Table 1) semi-quantitative” value was 0 and the “Activity against H9N2” value is recorded as “did not show any similar bioactivities”. Also, the “Activity: HI” value in series [4] was “No differences between all treatment and control groups”.

In the case of phillyrin, the “Activity: CPE” value in series [2] is “could not alleviate CPE; also recorded: The CPE of 0.5 and 0.25 mg/ml phillyrin-treated groups were more severe than that of the viral control group within 48 h”. Also, in series [3], the “Activity (see Table 1) qualitative” value is on record as 1 and the “Activity (see Table 1) semi-quantitative” value is reported as 1. In series [4], the “Activity: HI” value was “had HI activity; also recorded: There was no H in 0.25 mg/ml phillyrin-treated group at 24 h and in 0.5mg/ml phillyrin-treated group at 24 or 48 h”.
